Entries after “also recorded” stand apart in the source; their conditions may differ.
Columns and labels:
C. elegans [1] = experiment: Ascaroside function (Table 12); assay type: in vivo, Caenorhabditis elegans; parameters: key to Attract Females/Herm. / Promote Dauer Formation / Attract Males: A very strong result of affecting nematode behavior is designated in the table as “strong.”; conditions: listed = has this function
Experimental: (§1) Various ascarosides and ascaroside blends were administered to various nematodes described below (Table 12). […] A very strong result of affecting nematode behavior is designated in the table as “strong.”

C. elegans [2] = conditions: in vivo; cited from earlier work
C. elegans males = experiment: Attraction assay (long-range, point source); assay type: in vivo; conditions: 10 cm plate
Experimental: 10 cm standard chemotaxis plates were prepared (Bargmann et al., Cell 74:515-27 (1993), which is hereby incorporated by reference in its entirety) and stored at 4° C. until the day before use. Standard 1 cm-diameter copper pipes were sectioned into 1 cm-tall segments to use for the holding chambers. The females/hermaphrodites were isolated overnight, washed 3 times in M9 buffer, and then allowed to wander on a plate pre-conditioned with 50 uL of 1000× treptomycin for 2 hours to kill any bacteria that might produce a false positive attractant. The nematodes were then washed 3 times, and the supernatant from the last wash was placed in a copper chamber, as the control, 1 cm from the border of the 10 cm plate. The nematodes were suspended in M9 within the copper chamber, 1 cm from the border opposite the control chamber. After 6 hours, they were subsequently removed and replaced with 3 μL of 1M sodium azide. 100 C. elegans adult males were isolated overnight, washed several times in ddH2O, and placed at the center of the agar plate. After several hours, males paralyzed within 2 cm of each region were scored. The Chemotaxis Index (Bargmann et al., Cell 74:515-27 (1993), which is hereby incorporated by reference in its entirety) was then used to score male chemotaxis to either point source.

C. elegans dauer larvae = experiment: Dispersal assay; assay type: in vivo; conditions: physiological concentration; 0.25% E. coli added; food-only control approximately 35%
Experimental: C. elegans dauer juveniles were washed with MILLI-Q water 3 times, placed into 6 cm petri dishes with a small amount of water, and rested overnight. Approximately 200-300 nematodes in 10 μl of water were placed on an agar plate, to which 2 μl of treatment was added. The liquid culture that produced 60% dauer animals was centrifuged, filtered with a 0.45 μm filter, and used as a positive control for dispersal. Thereafter, media were lyophilized and resuspended in MILLI-Q water 5 times. 2 μl to 10 μl of nematode suspension was used for the assay. As a negative control, 0.5% E. coli (HB101) was prepared in S-complete, lyophilized, and adjusted to the final volume of 0.25% E. coli in the assay.
Nematodes were quantified using Image J software (Image Processing and Analysis in Java, National Institutes of Health). The number of nematodes visualized and counted using Image J is illustrated in FIG. 63B. Nematodes inside the circle were subtracted manually from the total number of worms counted because of the location of their placement. Each treatment was replicated 9-11 times. The graph was normalized to the positive control, the dauer conditioned medium.
A synthetic blend of these ascarosides was then tested for dispersal activity, using the dauer conditioned medium as a positive control. The media was estimated to contain approximately half of the original 0.5% E. coli (HB101) food source. […]

C. elegans [3] = conditions: cited from earlier work
S. feltiae = experiment: Ascaroside function (Table 12); assay type: in vivo, Steinernema feltiae; conditions: listed = has this function
Experimental: as §1

[4] = tested on: Several of the tested nematode species; experiment: Retention assay; assay type: in vivo; conditions: 1 nM, 1 μM and 1 mM tested
Experimental: (§2) OP50 E. coli was grown on a standard 5 cm agar plate (made with standard Nematode Growth Medium). The bacterial lawn was 16 mm in diameter and was grown overnight at 20° C. before being used in trials. Two 4 mm spots (0.6 μL) were placed on opposite sides of the bacterial lawn (using a transparent template to guide spot placement), and several minutes elapsed for the liquid to settle in before placing nematodes down on the assay. Recording began immediately upon worm placement. 0.6 μL of the control was placed on one side of the lawn, and 0.6 μL of the experimental cue was placed on the other side of the lawn, changing the location of the cue throughout trials between left/right and top/bottom to avoid bias.
(§3) Nematodes were isolated by gender at the L4 stage the day before being used in trials as developed adults. Worms were evenly divided and placed at two points equidistant from the foci of the scoring region. Trials were recorded for 20 minutes, and frames were collected for analysis at 1 frame per second. Results were averaged from at least three different trials. For every nematode species in this study, a different total number of worms (using water in both scoring regions) was tested to determine the minimum number of worms necessary for consistent unbiased results over a 20 minute trial. The total number of worms used in the multiple species assays depended on that species' optimal parameters. 10 worms were used for P. redivivus males and females, 20 worms were used for C. elegans males and O. dolichuridae males, and 14 worms were used for S. glaseri males. The Automated Software was used to compare worm occupancy in each scoring region over time, and the Chemotaxis Index (Bargmann et al., Cell 74:515-27 (1993), which is hereby incorporated by reference in its entirety) was adapted to score preference or avoidance to each ascaroside.
(§4) A video camera attached to the microscope produced a digital video stream, which was then analyzed. The ratio of the time the average worm spent in each region of interest was calculated for every trial. For ease of implementation, all worms in a single experiment were assumed to be roughly the same size. Thus worm pixels were counted instead of whole worms, allowing fractions of a worm in the region of interest to be taken into account. It also eliminated the need for a shape-based worm identification algorithm, and allowed each frame to be analyzed independently. A band-pass filter was applied to each frame to eliminate the effect of uneven lighting and also accentuate the worms against the background. The worm was then identified after thresholding the filtered image. Throughout each experiment, the locations and sizes of the regions of interest were known. Through the filtering described above, it is known which pixels are occupied by worms and which ones are not. Thus, the ratio of worm-pixels to all pixels inside the region of interest can be calculated to produce the worm-occupancy ratio. This calculation was done for every frame, giving a plot output of worm-occupancy ratio vs. time for each region.

Panagrellus redivivus = experiment: Ascaroside function (Table 12); assay type: in vivo; conditions: listed = has this function
Experimental: as §1

S. glaseri = experiment: Ascaroside function (Table 12); assay type: in vivo; conditions: listed = has this function
Experimental: as §1

C. elegans [5] = experiment: Spot attraction assay; assay type: in vivo
Experimental: The spot attraction assays were conducted according to a previously reported method (Pungaliya et al., PNAS 106:7708-13 (2009); Srinivasan et al., Nature 454:1115-18 (2008), which are hereby incorporated by reference in their entirety). For both C. elegans hermaphrodites and males, 50-60 worms were harvested daily at the fourth larval stage (L4) and stored segregatedly by sex at 20° C. overnight, to be used as young adults the following day. For the competition experiments, two conditions were used: 120 nM ascr#3 and 10 nM icas#3 (Condition 1), or 12 μM ascr#3 and 1 μM icas#3 (Condition 2) in water containing 10% ethanol. Aliquots were stored at −20° C. in 20 μL tubes. 10% ethanol in water was used as control.
Attraction assays with hbas#3 were conducted as previously reported (Srinivasan et al., Nature 454:1115-18 (2008); Pungaliya et al., Proc. Natl. Acad. Sci. U.S.A. 106:7708-13 (2009), which are hereby incorporated by reference in their entirety). For the attraction assays, 50-60 hermaphrodite worms were harvested daily at the early fourth larval stage (L4) and stored at 20° C. overnight to be used as young adults the following day. Hbas#3 was dissolved in water containing 10% ethanol. Aliquots were stored at −20° C. in 20 μL tubes. 10% ethanol in water was used as control.

[6] = tested on: P. redivivus males and females; experiment: Retention assay; assay type: in vivo
Experimental: as §2, §3, §4

C. elegans [7] = experiment: Aggregation assay; assay type: in vivo
Experimental: Aggregation behavior of worms was measured using assays reported in de Bono & Bargmann, Cell 94:679-89 (1998), which is hereby incorporated by reference in its entirety. Aggregation assays were conducted on standard NGM plates. Plates containing indole ascarosides were made by adding the indole ascaroside stock solution to the NGM media before they were poured onto the plates. These plates were dried at room temperature for 2 to 3 days. Control plates were treated similarly, except that ethanol solutions instead of icas solutions were added to the plates, corresponding to the amount of ethanol introduced via the icas solutions. Final ethanol concentrations of the plates were below 0.1% for all conditions. After drying, both control plates and plates containing indole ascarosides were seeded with 150 μl of an overnight culture of E. coli OP50 using a micropipette, and were allowed to dry for 2 days at room temperature. For “low worm density” experiments, 20 worms were placed onto the lawn and left at 20° C. for 3 hours. For “high worm density” experiments, approximately 120 worms were placed onto the bacterial lawn and left at 20° C. for 3 hours. Aggregation behavior was quantified as the number of animals that were in touch with two or more animals at greater than 50% of their body length.

Row | Compound | Attract Males (C. elegans [1]) | Dispersal (of dauer larvae, infectious juveniles) (C. elegans [1]) | Promote Dauer Formation (C. elegans [1]) | dauer-inducing activity (C. elegans [2]) | male attraction from a distance (C. elegans males) | dispersing nematodes, normalized to the percent of the positive control response (C. elegans dauer larvae) [%] | Dispersal (of dauer larvae, infectious juveniles) (S. feltiae) | other results
1 | CC(=O)CCC[C@@H](C)O[C@@H]1O[C@@H](C)[C@H](O)C[C@H]1O [ascr#2] | ascr#2 | ascr#2 | ascr#2 ([strong]) | individually promote dauer entry | chemotax towards | 40 | ascr#2 | amount as low as which elicited C. elegans male attraction (C. elegans males): 500 attomol; most active amount for attraction (C. elegans [3]; from 1 μM concentration): ~1 pmol
2 | C[C@H](CC/C=C/C(=O)Nc1ccc(C(=O)O)cc1)O[C@@H]1O[C@@H](C)[C@H](O)C[C@H]1O [ascr#8] | ascr#8 | ascr#8 | ascr#8 ([strong]) | individually promote dauer entry | not active | 50 | ascr#8 | preference for ascaroside-conditioned areas [4]: preferred areas conditioned; Attract Females/Herm. (Panagrellus redivivus): ascr#8; Attract Males (Panagrellus redivivus): ascr#8; Attract Males (S. glaseri): ascr#8; male attraction (C. elegans [3]; in vivo): major component of the male-attracting signal
3 | C[C@H](CCC(=O)O)O[C@@H]1O[C@@H](C)[C@H](OC(=O)c2c[nH]c3ccccc23)C[C@H]1O [icas#9] | ([strong]) |  | icas#9 | moderate dauer-inducing activity; also recorded: individually promote dauer entry |  |  | icas#9 | Attract Females/Herm. (C. elegans [1]): icas#9 ([strong]); attraction in spot attraction assay (C. elegans [5]; 1 pmol (high concentrations), N2 hermaphrodites and him-5 males): attractive to both C. elegans sexes; also recorded: attracted both males and hermaphrodites; attraction of hermaphrodites (C. elegans [5]; low concentrations, N2 hermaphrodites): strongly attracted; attraction of males (C. elegans [5]; low concentrations, males): males are not attracted; response of P. redivivus males [6]: no response; Repel Females/Herm. (Panagrellus redivivus): icas#9; aggregation (C. elegans [3]; in vivo): aggregating stimulant; aggregation of solitary and social hermaphrodites (C. elegans [7]; constant background concentration): increased aggregation; also recorded: strongly increased the propensity; concentration window for hermaphrodite attraction and aggregation (C. elegans [7]; in vivo): femtomolar to picomolar

From patent publication US9487551B2, “Small molecule compounds that control mammal-pathogenic nematodes” (California Institute of Technology, priority 2011, dated 2016)
